Data reported in patent publication US11453703B2, “Heterotandem bicyclic peptide complexes” (BicycleTX Limited, priority 2018, dated 2022).

How the values were obtained:
human EphA2 protein = human EphA2 protein (Homo sapiens, UniProt P29317); test: EphA2 Biacore (SPR) binding assay; conditions: biotinylated human EphA2, 25° C.
Protocol: Biacore experiments were performed to determine ka (M^−1s^−1), kd (s^−1), KD (nM) values of heterotandem peptides binding to human EphA2 protein.
EphA2 were biotinylated with EZ-Link™ Sulfo-NHS-LC-Biotin for 1 hour in 4 mM sodium acetate, 100 mM NaCl, pH 5.4 with a 3× molar excess of biotin over protein. The degree of labelling was determined using a Fluorescence Biotin Quantification Kit (Thermo) after dialysis of the reaction mixture into PBS. For analysis of peptide binding, a Biacore T200 instrument was used with a XanTec CMD500D chip. Streptavidin was immobilized on the chip using standard amine-coupling chemistry at 25° C. with HBS-N (10 mM HEPES, 0.15 M NaCl, pH 7.4) as the running buffer. Briefly, the carboxymethyl dextran surface was activated with a 7 min injection of a 1:1 ratio of 0.4 M 1-ethyl-3-(3-dimethylaminopropyl) carbodiimide hydrochloride (EDC)/0.1 M N-hydroxy succinimide (NHS) at a flow rate of 10 it/min. For capture of streptavidin, the protein was diluted to 0.2 mg/ml in 10 mM sodium acetate (pH 4.5) and captured by injecting 120 μl onto the activated chip surface. Residual activated groups were blocked with a 7 min injection of 1 M ethanolamine (pH 8.5):HBS-N (1:1). Buffer was changed to PBS/0.05% Tween 20 and biotinylated EphA2 was captured to a level of 500-1500 RU using a dilution of protein to 0.2 μM in buffer. A dilution series of the peptides was prepared in this buffer with a final DMSO concentration of 0.5% with a top peptide concentration was 50 or 100 nM and 6 further 2-fold dilutions. The SPR analysis was run at 25° C. at a flow rate of 90 μl/min with 60 seconds association and 900-1200 seconds dissociation. Data were corrected for DMSO excluded volume effects. All data were double-referenced for blank injections and reference surface using standard processing procedures and data processing and kinetic fitting were performed using Scrubber software, version 2.0c (BioLogic Software). Data were fitted using simple 1:1 binding model allowing for mass transport effects where appropriate.

CD137 [1] = target: T1, CD137 (Homo sapiens, UniProt Q07011); test: CD137 Biacore (SPR) binding assay; parameters: purchased R&D systems; conditions: biotinylated human CD137, 25° C.
T1 sequence (Q07011 24-255): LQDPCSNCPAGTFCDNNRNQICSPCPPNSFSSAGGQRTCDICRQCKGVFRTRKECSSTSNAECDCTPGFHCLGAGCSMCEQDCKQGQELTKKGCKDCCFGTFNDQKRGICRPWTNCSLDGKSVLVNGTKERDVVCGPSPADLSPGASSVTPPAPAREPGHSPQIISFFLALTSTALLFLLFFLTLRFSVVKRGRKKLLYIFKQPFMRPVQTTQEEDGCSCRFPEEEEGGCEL
Protocol: Biacore experiments were performed to determine ka (M^−1s^−1), kd (s^−1), KD (nM) values of heterotandem peptides binding to human CD137 protein. […] The protein was desalted to remove uncoupled biotin using spin columns into PBS.
For analysis of peptide binding, a Biacore T200 or a Biacore 3000 instrument was used with a XanTec CMD500D chip. Streptavidin was immobilized on the chip using standard amine-coupling chemistry at 25° C. with HBS-N (10 mM HEPES, 0.15 M NaCl, pH 7.4) as the running buffer. Briefly, the carboxymethyl dextran surface was activated with a 7 min injection of a 1:1 ratio of 0.4 M 1-ethyl-3-(3-dimethylaminopropyl) carbodiimide hydrochloride (EDC)/0.1 M N-hydroxy succinimide (NHS) at a flow rate of 10 μl/min. For capture of streptavidin, the protein was diluted to 0.2 mg/ml in 10 mM sodium acetate (pH 4.5) and captured by injecting 120 μl of onto the activated chip surface. Residual activated groups were blocked with a 7 min injection of 1 M ethanolamine (pH 8.5) and biotinylated CD137 captured to a level of 270-1500 RU. Buffer was changed to PBS/0.05% Tween 20 and a dilution series of the peptides was prepared in this buffer with a final DMSO concentration of 0.5%. The top peptide concentration was 500 nM with 6 further 2-fold or 3-fold dilutions. The SPR analysis was run at 25° C. at a flow rate of 90 μl/min with 60 seconds association and 900 seconds dissociation. After each cycle a regeneration step (10 μl of 10 mM glycine pH 2) was employed. Data were corrected for DMSO excluded volume effects as needed. All data were double-referenced for blank injections and reference surface using standard processing procedures and data processing and kinetic fitting were performed using Scrubber software, version 2.0c (BioLogic Software). Data were fitted using simple 1:1 binding model allowing for mass transport effects where appropriate.

CD137 [2] = target: T1, CD137; test: CD137 reporter assay, co-culture with EphA2 tumour cells; assay type: cell-based; parameters: host or cells: Jurkat reporter cells; conditions: tumour target EphA2, co-culture with SC-OV-3, 6 h
In short: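 Jurkat CD137 reporter cells co-cultured with tumour cells and serially diluted test articles in RPMI-1640 + 1% FBS, 6 h at 37 °C, 5% CO2. Luminescence read after Bio-Glo; fold change over cells-only background fitted log(agonist) vs response for EC50 (nM) and maximal fold induction.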

[3] = system: human PBMC co-cultured with 4T1-D02 (Nectin4+); test: Human PBMC-4T1 co-culture (cytokine release) assay; assay type: cell-based; conditions: anti-CD3 stimulated PBMC, 48 hours
Protocol: Mouse mammary gland tumor cell line 4T1-1 (4T1-Parental) and murine Nectin-4 overexpressing 4T1 (4T1-D02) were cultured in RPMI1640 supplemented with 10% heat-inactivated Fetal Bovine Serum, 100 I.U/ml Penicillin and 100 I.U/Streptomycin, 20 mM HEPES, 1× Non-Essential Amino Acids, and 2 mM L-Glutamine (RPMI working medium). Frozen PBMCs from healthy human donors were thawed and washed one time in room temperature PBS, and then resuspended in RPMI working medium. For tumor cell and PBMC co-culture, 10000 PBMCs and 2000 tumor cells (5:1) were mixed and plated in each well of a 384 well plate. For stimulating human PBMCs, 125 ng/ml of soluble anti-CD3 mAb (clone OKT3) was added to the culture on day 0. Test, control compounds or vehicle controls were added to respective wells and brought the final volume per well to 100u1. Plates were incubated in a 37° C. cell culture incubator with 5% CO2 for up to three days. Supernatants were collected 48 hours after stimulation, and human IL-2 and IFFγ were detected using HTRF assays. Raw data were analyzed using Excel or Prism software to generate standard curves to interpolate protein concentrations. Data represents one study with three different donor PBMC tested in experimental duplicates.

CD137 [4] = target: T1, CD137; test: CD137 reporter assay, co-culture with Nectin-4 tumour cells; assay type: cell-based; parameters: host or cells: Jurkat reporter cells;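 further: jurkat reporter cells co-cultured with tumour cells and test article for 6 h, luminescence signal relative to Jurkat plus tumour cells lacking test article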

human EphA2 protein, sequence (P29317 24-976): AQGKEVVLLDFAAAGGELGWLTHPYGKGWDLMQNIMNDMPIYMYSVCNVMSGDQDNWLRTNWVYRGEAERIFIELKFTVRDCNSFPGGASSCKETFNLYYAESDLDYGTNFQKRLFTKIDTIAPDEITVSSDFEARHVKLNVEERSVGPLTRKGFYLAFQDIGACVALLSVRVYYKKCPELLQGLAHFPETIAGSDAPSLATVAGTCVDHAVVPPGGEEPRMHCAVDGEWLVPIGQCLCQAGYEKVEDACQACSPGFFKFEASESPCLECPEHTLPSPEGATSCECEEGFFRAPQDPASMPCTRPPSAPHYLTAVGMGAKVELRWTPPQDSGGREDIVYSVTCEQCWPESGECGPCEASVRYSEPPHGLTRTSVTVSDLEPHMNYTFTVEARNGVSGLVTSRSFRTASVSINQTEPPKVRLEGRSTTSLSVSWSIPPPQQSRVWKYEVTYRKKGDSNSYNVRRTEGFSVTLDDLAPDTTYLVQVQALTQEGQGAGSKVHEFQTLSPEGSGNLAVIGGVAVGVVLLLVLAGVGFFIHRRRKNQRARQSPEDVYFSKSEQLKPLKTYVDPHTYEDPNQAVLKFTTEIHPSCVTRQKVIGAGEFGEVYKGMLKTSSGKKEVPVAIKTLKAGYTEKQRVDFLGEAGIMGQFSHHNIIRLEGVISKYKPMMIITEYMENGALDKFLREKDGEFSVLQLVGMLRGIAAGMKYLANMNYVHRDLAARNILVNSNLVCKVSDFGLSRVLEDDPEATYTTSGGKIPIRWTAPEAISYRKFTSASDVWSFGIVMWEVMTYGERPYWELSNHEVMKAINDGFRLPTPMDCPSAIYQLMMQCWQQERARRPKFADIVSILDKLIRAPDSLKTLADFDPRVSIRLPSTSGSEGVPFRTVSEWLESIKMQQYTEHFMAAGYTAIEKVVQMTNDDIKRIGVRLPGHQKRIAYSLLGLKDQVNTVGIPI

Structure (SMILES) | Kd (human EphA2 protein) [nM] | Kd (CD137 [1]) [nM] | EC50 (CD137 [2]) [nM] | Fold Induction over Background (CD137 [2]) [fold] | max IFN-y [3] | fold induction at 0.1 µM (CD137 [4]; read-out: Fold Induction over Background at 100 nM) | EC50 ([3]; IFN-γ secretion) [nM] | EC50 (CD137 [4]) [nM] | Fold Induction over Background (CD137 [4]; tumour target Nectin4, co-culture with H1376, 6 h) [fold]
CCCC[C@@H]1NC(=O)[C@H](Cc2ccc(O)cc2)NC(=O)[C@@H]2CCCN2C(=O)[C@H](CC(=O)O)NC(=O)[C@H](C)NC(=O)[C@H](Cc2ccccc2)NC(=O)[C@@H]2CSCCC(=O)N3CN(CN(C3)C(=O)CCSC[C@@H](C(=O)N[C@@H](CNC(=O)CCc3cn(CCOCCOCCOCCOCCOCCOCCOCCOCCOCCOCCNC(=O)NCCC(=O)N(C)CC(=O)N(C)CC(=O)N(C)CC(=O)N(C)CC(=O)N(C)CC(=O)N(C)CC(=O)N(C)CC(=O)N(C)CC(=O)N(C)CC(=O)N(C)CC(=O)N[C@@H](C)C(=O)N[C@@H](CCCCNC(=N)N)C(=O)N[C@@H](CC(=O)O)C(=O)N[C@H]4CSCCC(=O)N5CN6CN(C5)C(=O)CCSC[C@H](NC(=O)[C@H](CC(C)C)NC(=O)[C@@H]5CCCN5C(=O)[C@H](CC(N)=O)NC(=O)[C@H](C(C)C)NC(=O)[C@H](CC(C)C)NC(=O)[C@@H]5C[C@@H](O)CN5C4=O)C(=O)N[C@@H](CC(C)C)C(=O)N[C@@H](Cc4c[nH]cn4)C(=O)N4CCC[C@H]4C(=O)N[C@H](CC(=O)O)C(=O)N[C@@H](Cc4c[nH]c5ccccc45)C(=O)N[C@@H](CCCCNC(=N)N)C(=O)N[C@H](C(N)=O)CSCCC6=O)nn3)C(N)=O)NC1=O)C(=O)CCSC[C@H](NC(=O)[C@H](C)NC(C)=O)C(=O)N[C@@H]([C@@H](C)CC)C(=O)N[C@@H](CCC(=O)O)C(=O)N[C@@H](CCC(=O)O)C(=O)NCC(=O)N[C@@H](CCC(N)=O)C(=O)N[C@@H](Cc1ccc(O)cc1)C(=O)N2 [BCY9647] | 1.69 | 206 | 7.2 | 24 | – | – | – | – | –
CCCC[C@@H]1NC(=O)[C@H](Cc2ccc(O)cc2)NC(=O)[C@@H]2CCCN2C(=O)[C@H](CC(=O)O)NC(=O)[C@@H](C)NC(=O)[C@H](Cc2ccccc2)NC(=O)[C@@H]2CSCCC(=O)N3CN(CN(C3)C(=O)CCSC[C@@H](C(=O)N[C@@H](CNC(=O)CCOCCOCCOCCOCCOCCOCCOCCOCCOCCOCCOCCOCCn3cc(CCC(=O)NCCC(=O)N(C)CC(=O)N(C)CC(=O)N(C)CC(=O)N(C)CC(=O)N(C)CC(=O)N(C)CC(=O)N(C)CC(=O)N(C)CC(=O)N(C)CC(=O)N(C)CC(=O)N[C@H]4CSCCC(=O)N5CN6CN(C5)C(=O)CCSC[C@H](NC(=O)[C@@H](CC(=O)O)NC(=O)[C@H](Cc5cccc7ccccc57)NC(=O)[C@@H]5CCCN5C4=O)C(=O)N[C@@H](CCSC)C(=O)N[C@@H](CCCCNC(=N)N)C(=O)N[C@@H](CC(=O)O)C(=O)N[C@@H](Cc4c[nH]c5ccccc45)C(=O)N[C@@H](CO)C(=O)N[C@@H]([C@@H](C)O)C(=O)N4CCC[C@H]4C(=O)N4C[C@H](O)C[C@H]4C(=O)N[C@@H](Cc4c[nH]c5ccccc45)C(=O)N[C@H](C(N)=O)CSCCC6=O)nn3)C(N)=O)NC1=O)C(=O)CCSC[C@H](NC(=O)[C@H](C)NC(C)=O)C(=O)N[C@@H]([C@@H](C)CC)C(=O)N[C@@H](CCC(=O)O)C(=O)N[C@@H](CCC(=O)O)C(=O)NCC(=O)N[C@@H](CCC(N)=O)C(=O)N[C@@H](Cc1ccc(O)cc1)C(=O)N2 [BCY9351] | – | 3640 | – | – | No Activity up to 1 μM | < 2 | – | – | –
CCCC[C@@H]1NC(=O)[C@H](Cc2ccc(O)cc2)NC(=O)[C@@H]2CCCN2C(=O)[C@H](CC(=O)O)NC(=O)[C@H](C)NC(=O)[C@H](Cc2ccccc2)NC(=O)[C@@H]2CSCCC(=O)N3CN(CN(C3)C(=O)CCSC[C@@H](C(=O)N[C@@H](CNC(=O)CCOCCOCCOCCOCCOCCOCCOCCOCCOCCOCCOCCOCCn3cc(CCC(=O)NCCC(=O)N(C)CC(=O)N(C)CC(=O)N(C)CC(=O)N(C)CC(=O)N(C)CC(=O)N(C)CC(=O)N(C)CC(=O)N(C)CC(=O)N(C)CC(=O)N(C)CC(=O)N[C@H]4CSCCC(=O)N5CN6CN(C5)C(=O)CCSC[C@H](NC(=O)[C@@H](CC(=O)O)NC(=O)[C@H](Cc5cccc7ccccc57)NC(=O)[C@@H]5CCCN5C4=O)C(=O)N[C@@H](CCSC)C(=O)N[C@@H](CCCCNC(=N)N)C(=O)N[C@@H](CC(=O)O)C(=O)N[C@@H](Cc4c[nH]c5ccccc45)C(=O)N[C@@H](CO)C(=O)N[C@@H]([C@@H](C)O)C(=O)N4CCC[C@H]4C(=O)N4C[C@H](O)C[C@H]4C(=O)N[C@@H](Cc4c[nH]c5ccccc45)C(=O)N[C@H](C(N)=O)CSCCC6=O)nn3)C(N)=O)NC1=O)C(=O)CCSC[C@H](NC(=O)[C@H](C)NC(C)=O)C(=O)N[C@@H]([C@@H](C)CC)C(=O)N[C@@H](CCC(=O)O)C(=O)N[C@@H](CCC(=O)O)C(=O)NCC(=O)N[C@@H](CCC(N)=O)C(=O)N[C@@H](Cc1ccc(O)cc1)C(=O)N2 [BCY8854] | – | – | – | – | 15962 pg/mL | – | 0.89 | 1.2 | 30
